Where “and” joins values, the source holds several entries; their conditions need not be identical. Equal entries are not always repeated.
Columns and labels:
[1] = test system: tobacco line over-expressing HPPD from Pseudomonas florescens; experiment: Transgenic tobacco herbicide damage, mesotrione with or without Sequestrene 138; format: in vivo, Nicotiana tabacum cv Samsun (tobacco)
Protocol: (§1) Effect of Iron Chelates in Mitigating Foliar Bleaching Injury from HPPD Inhibiting Herbicides Across Various Transgenic HPPD Tolerant Tobacco Events Over-expressing HPPD Genes from Different Origins
(§2) This experiment is carried out to determine whether iron chelates can mitigate the bleaching injury from HPPD inhibiting herbicides across various transgenic HPPD tolerant tobacco events over-expressing HPPD genes from different origins. These experiments are conducted using three distinct HPPD-overexpressing Nicotiana tabacum cv Samsun (tobacco) lines, one over-expressing wheat HPPD, one overexpressing an Avena HPPD and one over-expressing a HPPD from a bacterial source, Pseudomonas florescens. For each transgenic line, five identical clonal plants were sprayed with each herbicide treatment. Two untransformed clonal tobacco plants are also sprayed ([…]) with each herbicide treatment. Assessments are carried out 3, 7 and 14 days after herbicide application.
(§3) All scores represent average % herbicide damage. […] An equivalent safening effect is not observed when the same chemical treatments are applied to wild type plants.

[2] = test system: tobacco line overexpressing Avena HPPD; experiment: as above; format: in vivo, Nicotiana tabacum cv Samsun (tobacco)
Protocol: as §1, §2, §3

[3] = test system: tobacco line over-expressing wheat HPPD; experiment: as above; format: in vivo, Nicotiana tabacum cv Samsun (tobacco)
Protocol: as §1, §2, §3

SYHT04R soybeans = experiment: Greenhouse: Sequestrene 138Fe safening of HPPD-inhibitors, injury 6 days after treatment; format: in vivo, soybean; conditions: 6 days after treatment (maximum injury), mesotrione 420, bicyclopyrone 200, isoxaflutole 280 g/ha
Protocol: Effect of Sequestrene® 138Fe on Various HPPD-inhibitors in SYHT04R Soybeans. Maximum Injury Assessed 6 Days after Treatment
A greenhouse experiment is conducted to determine if Sequestrene® 138Fe was effective in safening various other HPPD herbicide-tolerant soybean events, such as SYHT04R.
SYHT04R soybean plants are grown in 4×4-inch pots filled with a greenhouse potting mix. When the plants reached the V2-V3 growth stage, they are sprayed with an HPPD inhibitor alone or in combination with Sequestrene® 138Fe at 1120 g/ha (equivalent to 67.2 g iron/ha). […] Observations on percent injury are recorded at 6 and 20 days after treatment. Data presented is from the 6 days after treatment rating representing the maximum injury observed during the experiment.

[4] = test system: Velvetleaf (Abutilon theophrasti); experiment: Greenhouse weed control: HPPD inhibitors with or without Sequestrene 138Fe, velvetleaf; format: in vivo; conditions: percent velvetleaf control 19 DAT
Protocol: Effect of Tank Mix Applications of HPPD Inhibitors and Sequestrene® 138Fe on Velvetleaf Control. Percent Control Assessed 19 DAT
A greenhouse experiment is conducted to determine the effect of chelated iron on weed control in the greenhouse. Velvetleaf (Abutilon theophrasti) and common waterhemp (Amaranthus rudis) plants are grown in 4×4-inch pots filled with a greenhouse potting mix. When the plants reached the 2 to 3 inch height (2 to 3 leaf stage), they are sprayed with a reduced rate of an HPPD inhibitor alone or in a tank mix combination with Sequestrene 138Fe at 140 g/ha (equivalent to 8.4 g iron/hectare) or 280 g/ha (equivalent to 16.8 g iron/hectare). […] Observations on percent control are recorded 12, 19, and 25 days after treatment.

SYHT0H2 soybeans [5] = experiment: Greenhouse: tank-mix and sequential Sequestrene 138Fe, HPPD-inhibitor maximum injury; format: in vivo, soybean; conditions: mesotrione 420, bicyclopyrone 200, tembotrione 368 g ai/ha
Protocol: Effect of Tank-mix and Sequential Application of Sequestrene® 138 on Mesotrione (Applied as Callisto®)—Maximum Injury in SYHT0H2 Soybeans
An experiment is conducted in the greenhouse to determine the effect of chelated iron (Sequestrene 138Fe containing 6% iron) on HPPD-inhibitor injury to SYHT0H2 soybeans. Soybeans are grown in pots filled with a greenhouse potting mix. When the plants reach the V2-V3 stage, they are sprayed with an HPPD-inhibitor herbicide applied alone (Treatment 1), or in tank mixture with Sequestrene 138Fe (Treatment 2), or sequentially with Sequestrene 138Fe applied 1 day before the HPPD inhibitor (Treatment 3). Sequestrene 138Fe is applied at 2240 g/ha (equivalent to 134 g iron/ha). All treatments are applied with liquid ammonium sulfate @ 2.5% v/v and a non-ionic surfactant (NIS) @ 0.25% v/v in 150 L/ha water. Observations on percent injury are recorded 5, 11, or 22 days after treatment. Data presented are maximum injury observed during the trial.

SYHT0H2 soybeans [6] = experiment: Greenhouse: Sequestrene 138Fe rate series, percent injury from HPPD-inhibitors at 7 DAT; format: in vivo, soybean; conditions: mesotrione 420, bicyclopyrone 200, tembotrione 368, topramezone 72 g/ha
Protocol: Effect of Sequestrene® 138Fe on Percent Injury from Various HPPD-inhibitors on SYHT0H2 Soybeans. Injury Assessed at Seven Days after Treatment (7 DAT)
SYHT0H2 soybeans are grown in 4×4-inch pots filled with a greenhouse potting mix. When the plants reach the V2-V3 growth stage, they are treated with an HPPD inhibitor applied alone or in a tank mixture with Sequestrene 138Fe at various rates ranging from 140 g product/ha (equivalent to 8.4 g iron/ha) to 2240 g product/ha (equivalent to 134 g iron/ha).

CS(=O)(=O)c1ccc(C(=O)C2C(=O)CCCC2=O)c([N+](=O)[O-])c1 [Mesotrione, mesotrione] was tested, and the “% herbicide damage” value ([1]; Trt 2: mesotrione 100 gai/ha alone, 3DAA) was 35% and 25% and 20%, the “% herbicide damage” value ([1]; Trt 2: mesotrione 100 gai/ha alone, 7DAA) was 55% and 30% and 35% and the “% herbicide damage” value ([1]; Trt 2: mesotrione 100 gai/ha alone, 14DAA) was 40% and 25% and 20% and 30%. The “% herbicide damage” value ([1]; Trt 4: mesotrione 50 gai/ha + Sequestrene 138 1000 g/ha, 7DAA) was 0%, the “% herbicide damage” value ([1]; Trt 4: mesotrione 50 gai/ha + Sequestrene 138 1000 g/ha, 14DAA) was 0% and the “% herbicide damage” value ([1]; Trt 5: mesotrione 100 gai/ha + Sequestrene 138 1000 g/ha, 3DAA) was 10% and 5%. For the same compound, the “% herbicide damage” value ([1]; Trt 5: mesotrione 100 gai/ha + Sequestrene 138 1000 g/ha, 7DAA) was 0%, the “% herbicide damage” value ([1]; Trt 6: mesotrione 150 gai/ha + Sequestrene 138 1000 g/ha, 3DAA) was 5% and 15% and 10% and the “% herbicide damage” value ([1]; Trt 6: mesotrione 150 gai/ha + Sequestrene 138 1000 g/ha, 14DAA) was 5% and 0%. For the same compound, the “% herbicide damage” value ([2]; Trt 13: mesotrione 400 gai/ha alone, 3DAA) was 55% and 45% and 50% and 60% and 40%, the “% herbicide damage” value ([2]; Trt 13: mesotrione 400 gai/ha alone, 7DAA) was 70% and 65% and the “% herbicide damage” value ([2]; Trt 13: mesotrione 400 gai/ha alone, 14DAA) was 65% and 45% and 50%. For the same compound, the “% herbicide damage” value ([2]; Trt 14: mesotrione 500 gai/ha alone, 3DAA) was 55% and 60% and 65%, the “% herbicide damage” value ([2]; Trt 14: mesotrione 500 gai/ha alone, 7DAA) was 75% and 70% and the “% herbicide damage” value ([2]; Trt 14: mesotrione 500 gai/ha alone, 14DAA) was 70% and 65% and 60%. The “% herbicide damage” value ([2]; Trt 15: mesotrione 600 gai/ha alone, 7DAA) was 55% and 75% and 78%, the “% herbicide damage” value ([2]; Trt 15: mesotrione 600 gai/ha alone, 14DAA) was 40% and 65% and 50% and 70% and the “% herbicide damage” value ([2]; Trt 16: mesotrione 400 gai/ha + Sequestrene 138 1000 g/ha, 3DAA) was 0% and 5% and 10%. The “% herbicide damage” value ([2]; Trt 16: mesotrione 400 gai/ha + Sequestrene 138 1000 g/ha, 7DAA) was 15% and 10%, the “% herbicide damage” value ([2]; Trt 16: mesotrione 400 gai/ha + Sequestrene 138 1000 g/ha, 14DAA) was 15% and 10% and 5% and the “% herbicide damage” value ([3]; Trt 7: mesotrione 200 gai/ha alone, 3DAA) was 10% and 5%. For the same compound, the “% herbicide damage” value ([3]; Trt 7: mesotrione 200 gai/ha alone, 7DAA) was 10% and 0%, the “% herbicide damage” value ([3]; Trt 7: mesotrione 200 gai/ha alone, 14DAA) was 10% and 0% and the “% herbicide damage” value ([3]; Trt 8: mesotrione 300 gai/ha alone, 3DAA) was 15% and 10%. For the same compound, the “% herbicide damage” value ([3]; Trt 9: mesotrione 400 gai/ha alone, 3DAA) was 20% and 15%, the “% herbicide damage” value ([3]; Trt 9: mesotrione 400 gai/ha alone, 7DAA) was 20% and 25% and the “% herbicide damage” value ([3]; Trt 10: mesotrione 200 gai/ha + Sequestrene 138 1000 g/ha, 3DAA) was 0% and 5%. The “% herbicide damage” value ([3]; Trt 10: mesotrione 200 gai/ha + Sequestrene 138 1000 g/ha, 7DAA) was 0%, the “% herbicide damage” value ([3]; Trt 11: mesotrione 300 gai/ha + Sequestrene 138 1000 g/ha, 3DAA) was 0% and 5% and 10% and the “% herbicide damage” value ([3]; Trt 11: mesotrione 300 gai/ha + Sequestrene 138 1000 g/ha, 7DAA) was 10% and 5% and 0%. The “% herbicide damage” value ([3]; Trt 12: mesotrione 400 gai/ha + Sequestrene 138 1000 g/ha, 3DAA) was 10% and 0%, the “% herbicide damage” value ([3]; Trt 12: mesotrione 400 gai/ha + Sequestrene 138 1000 g/ha, 7DAA) was 5% and 0% and the “% herbicide damage” value ([3]; Trt 12: mesotrione 400 gai/ha + Sequestrene 138 1000 g/ha, 14DAA) was 10% and 5%. For the same compound, the “% Injury” value (SYHT04R soybeans; Sequestrene 138Fe 0 g/ha) was 23%, the “% Injury” value (SYHT04R soybeans; Sequestrene 138Fe 1120 g/ha) was 3% and the “% Injury” value ([4]; Sequestrene 138Fe 0 g/ha, g ai/ha: mesotrione 26, isoxaflutole 26, bicyclopyrone 50, tembotrione 46, pyrasulfatole 22, topramezone 18) was 100%. For the same compound, the “% Injury” value ([4]; Sequestrene 138Fe 140 g/ha tank mix, mesotrione 26, isoxaflutole 26 g ai/ha) was 100%, the “% Maximum Injury” value (SYHT0H2 soybeans [5]; Sequestrene 138Fe 2240 g/ha applied 1 day before herbicide (Treatment 3, sequential)) was 7% and the “% Maximum Injury” value (SYHT0H2 soybeans [5]; herbicide alone (Treatment 1), maximum of 5, 11, 22 days after treatment) was 20%. The “% Maximum Injury” value (SYHT0H2 soybeans [5]; tank mix with Sequestrene 138Fe 2240 g/ha (Treatment 2, simultaneous)) was 0%, the “% Injury” value (SYHT0H2 soybeans [6]; Sequestrene 138Fe 0 g/ha) was 15% and the “% Injury” value (SYHT0H2 soybeans [6]; Sequestrene 138Fe 140 g/ha tank mix) was 13%. The “% Injury” value (SYHT0H2 soybeans [6]; Sequestrene 138Fe 280 g/ha tank mix) was 2%, the “% Injury” value (SYHT0H2 soybeans [6]; Sequestrene 138Fe 560 g/ha tank mix) was 1% and the “% Injury” value (SYHT0H2 soybeans [6]; Sequestrene 138Fe 1120 g/ha tank mix) was 0%. For the same compound, the “% Injury” value (SYHT0H2 soybeans [6]; Sequestrene 138Fe 2240 g/ha tank mix) was 0%.

— patent US10159254B2, “Weed control methods” (Syngenta Participations AG, priority 2013, dated 2018)
